Assay results as given in PMC10141604, “Small-Molecule Inhibition of Androgen Receptor Dimerization as a Strategy against Prostate Cancer” (ACS Central Science, 2023).

Legend:
Solubility (statement) = type: physicochemical
AR = target: T1, AR (Homo sapiens, UniProt P10275, T878A); assay: AR transcriptional activity assay (LNCaP-ARR2PB-eGFP cells); type: cell-based
T1 construct: The cells of LNCaP-ARR2PB-eGFP were; endogenous in cells; host or cells: LNCaP-ARR2PB-eGFP
T1 sequence (P10275 1-920 T878A): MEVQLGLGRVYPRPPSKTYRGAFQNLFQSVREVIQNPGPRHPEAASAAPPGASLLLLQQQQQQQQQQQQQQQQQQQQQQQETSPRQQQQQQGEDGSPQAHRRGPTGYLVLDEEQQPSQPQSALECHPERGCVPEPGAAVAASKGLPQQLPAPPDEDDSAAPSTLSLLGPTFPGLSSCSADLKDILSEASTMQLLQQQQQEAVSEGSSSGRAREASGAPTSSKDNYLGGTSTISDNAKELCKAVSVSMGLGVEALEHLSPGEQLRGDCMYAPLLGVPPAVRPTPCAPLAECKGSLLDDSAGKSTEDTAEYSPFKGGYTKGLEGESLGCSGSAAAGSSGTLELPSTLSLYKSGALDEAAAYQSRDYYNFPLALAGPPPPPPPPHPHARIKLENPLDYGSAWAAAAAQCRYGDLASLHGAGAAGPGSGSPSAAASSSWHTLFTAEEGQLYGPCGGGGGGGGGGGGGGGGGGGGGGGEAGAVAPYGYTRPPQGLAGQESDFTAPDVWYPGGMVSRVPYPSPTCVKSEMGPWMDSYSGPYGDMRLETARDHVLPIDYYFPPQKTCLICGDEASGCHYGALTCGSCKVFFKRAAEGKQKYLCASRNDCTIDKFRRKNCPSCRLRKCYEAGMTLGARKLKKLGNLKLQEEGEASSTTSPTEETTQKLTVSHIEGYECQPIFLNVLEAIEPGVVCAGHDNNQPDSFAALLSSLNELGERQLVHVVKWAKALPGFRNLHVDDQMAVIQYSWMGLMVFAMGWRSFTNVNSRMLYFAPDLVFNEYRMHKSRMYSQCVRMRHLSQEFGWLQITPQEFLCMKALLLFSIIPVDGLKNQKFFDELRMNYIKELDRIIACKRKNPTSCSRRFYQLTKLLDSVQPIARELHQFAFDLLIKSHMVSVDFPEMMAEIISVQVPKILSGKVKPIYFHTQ
Procedure: University, Hangzhou, China), respectively. […]
AR Transcriptional Activity Assay
The AR transcriptional activities were determined using the constructed LNCaP-ARR2PB-eGFP cell as previously reported.11, 12 The cells of LNCaP-ARR2PB-eGFP were […]
by seeding into a 96 -well plate (3.5× 10^4 cells/well) for 1 day incubation at 37 °C. Then, the cells were treated with 5 nM DHT and various concentrations of compounds (10 μM […]
the fluorescence intensities were determined using a Synergy H1 microplate reader

[1] = test system: DHT-induced AR nuclear translocation in LNCaP cells; assay: Nuclear and cytoplasmic fractionation, AR nuclear translocation; type: cell-based; settings: 10 μM, 10 nM DHT, 16 h
Procedure: h incubation at room temperature, each membrane was further incubated with specific
Lamin B1, #AF1408, Beyotime Biotechnology) and then the corresponding secondary antibody (HRP-conjugated Goat Anti-Rabbit IgG, # D110058, Sangon Biotech). The Image J program was performed for quantitative analysis of the immunoreactive bands.
Extraction of Nuclear and Cytoplasmic Fractions
presence of 10 nM DHT and incubated for 16 h. The NE-PER Nuclear and Cytoplasmic
extraction of nuclear and cytoplasmic proteins according to manufacturer’s protocol.

Du145 = assay: MTT cell viability assay, Du145; type: cell-based; settings: 72 h
Procedure: (§1) 3-(4,5-dimethythiazol-2-yl)-2,5-diphenyl-2-H-tetrazolium bromide (MTT) colorimetric assay was employed to investigate cell viability. Cells were seeded into 96-well plates with 2-5× 10^3 cells per well (5× 10^3 cells/well for LNCaP, 22RV1, NIH-3T3, GES-1, Chang, […]
(§2) NCI-H1299, U2OS, U87) for 1 day incubation at 37 °C. Then, the cells were treated with various concentrations of compounds (22.86 nM - 50 μM) and incubated for 72 h. Then, 10 μl MTT (5 mg/ml) was added into each well and incubated for 4 h. Afterwards, 100 μl of triplex 10% SDS-0.1% HCl-phosophate-buffered saline (PBS) solutions was added into each well and incubated for overnight. The absorbance at 570 nm was measured (Eon, Bioteck, Winooski, VT). […]

AR LBD = target: T2, AR LBD (Homo sapiens, UniProt P10275); assay: Biolayer interferometry (BLI) binding to purified AR LBD
T2 construct: The AR LBD (663-919) was fused into the pET50b vector with Nus-tag; Nus-tag (cleaved yes); made in house; host or cells: E. coli BL21 (DE3)
T2 sequence (P10275 663-919): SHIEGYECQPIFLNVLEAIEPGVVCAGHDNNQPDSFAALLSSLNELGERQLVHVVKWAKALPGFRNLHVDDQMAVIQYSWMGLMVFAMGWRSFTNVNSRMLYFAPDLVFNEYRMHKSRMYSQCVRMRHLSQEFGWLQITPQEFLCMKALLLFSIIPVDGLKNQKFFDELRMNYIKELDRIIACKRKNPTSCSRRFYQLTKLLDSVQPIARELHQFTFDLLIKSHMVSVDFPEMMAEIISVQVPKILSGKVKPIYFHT
Procedure: in 4 L LB media at 37°C until OD600 arrived to 0.6, then supplemented with 0.5 mM Isopropyl β-D-1-Thiogalactopyranoside (IPTG) and 20 μM DHT. After incubated at 16 °C for 16-18 h, the cells were collected by centrifugation at 3,500 × g for 0.5 h. The cell mass was resuspended in Lysis buffer (20 mM Tris -HCL pH 7.4, 5 mM imidazole,150 mM NaCl, 10% Glycerol, 2 mM Dithiothreitol (DTT) and 10 μM DHT) and lysed at 800 bar for at least 5 cycles. The lysis was centrifugated at 14,000 × g for 0.5 h, and the supernatant was loaded to HisTrap TM […] HP column (#17524802, GE Healthcare), followed by washing and eluting steps using 65 mM imidazole and 300 mM imidazole, respectively.
The elution from Ni-NTA were cut by HRV-3C protease, and further purified by […]
The purified AR LBD protein was biotinylated using EZ-Link™ Sulfo-NHS-LC-LC-Biotin (#A35358, ThermoFisher) in 500 μL phosphate -buffered saline with 0.02% Tween -20 (v/v, PBST) buffer for 2 h at 4 °C. […] The kinetics of the AR LBD and M17-B15 association was evaluated by soaking the AR LBD-loaded sensors into wells containing various concentrations of M17 -B15 (6.25, 12.5, 25, 50, 100 μM) for 60 s, followed by dissociation of M17 -B15 by soaking the sensors in the PBST buffer for 60 s. The kinetics values were calculated by fitting the kinetic data based on a 1:1 binding model using Forté Bio data analysis (v.11.1) software .

22RV1 = assay: MTT cell viability assay, 22RV1; type: cell-based; settings: 72 h
Procedure: as §1, §2

solubility (Solubility (statement)): poor solubility | IC50 (AR; LNCaP-ARR2PB-eGFP cells, 5 nM DHT, 3 days): 0.03 ± 0.01 µM | improvement in AR transcriptional inhibition compared with the original hit M17 (AR; ratio of IC50 values): > 31 fold | Kd (AR LBD; 1:1 binding model, read-out: equilibrium dissociation constant (KD)): 13.2 µM | koff (AR LBD; read-out: Kd (dissociation rate)): 0.033 s⁻¹
Compound: CC(=O)Cc1nsc(NC(=O)c2cc(-c3cccc(C(F)(F)F)c3)oc2C)n1 [Compound M17-B15]
DHT-induced AR nuclear translocation [1]: inhibit | inhibition on the cell viability of Du145 (Du145): does not show obvious inhibition | inhibition on the cell viability of 22RV1 (22RV1): does not show obvious inhibition
